Counter-ions that a name gives are not always drawn.
How the values were obtained:
stromelysin (HSLN) = stromelysin (HSLN) (Homo sapiens, UniProt P08254); assay: MCA fluorogenic enzyme assay, competitive inhibition analysis (Ki,app), stromelysin; assay type: biochemical; settings: Ki,app; MCA peptide substrate, 37° C., pH 7.5; read-out: Enzyme Inhibition Constants (K1) HSLN
matrilysin (Matr.) = molecular target: T1, matrilysin (Matr.) (Homo sapiens, UniProt P09237); assay: MCA fluorogenic enzyme assay, competitive inhibition analysis (Ki,app), matrilysin; assay type: biochemical; settings: MCA peptide substrate, 37° C., pH 7.5, read-out: Enzyme Inhibition Constants (K1) Matr.
T1 sequence (P09237 95-267): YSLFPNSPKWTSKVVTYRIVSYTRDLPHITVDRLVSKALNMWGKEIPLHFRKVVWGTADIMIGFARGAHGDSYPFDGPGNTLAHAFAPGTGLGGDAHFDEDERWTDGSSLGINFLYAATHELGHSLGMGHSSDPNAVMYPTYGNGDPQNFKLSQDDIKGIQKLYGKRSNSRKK
Description: Stromelysin enzymatic activity was measured using a modified version of a resonance energy transfer fluorogenic assay as described in FEBS, vol. 296(3), p. 263 (1992), the disclosure of which is incorporated herein by reference. The MCA-peptide substrate is shown below. The fluorescent MCA group is quenched by resonance energy transfer to the 2,4-dinitrophenyl group. Matrix metalloproteinases cleave this substrate at the Gly-Leu bond. Cleavage results in the loss of energy transfer and a large increase in fluorescence of the MCA group. [drawing 56] 7-methoxycoumarin-4-yl-acetyl-pro-leu-gly-leu-3-(2,4-dinitrophenyl)-L-2,3-diaminoproprionyl-ala-arg-NH2
The MCA assay was performed at 37° C. in buffer containing 50 mM Tricine (pH 7.5), 10 mM CaCl2, 200 mM NaCl, and 1% DMSO with the following concentrations of matrix metalloproteinases: 1.4 nM stromelyin, 0.063 nM matrilysin, and 0.030 nM gelatinase A. The concentration of MCA substrate was 10 or 20 μM in a final volume of 1.6 mL. Fluorescence data was collected with Perkin-Elmer LS-5B and LS-5B spectrofluorimeters with λexcitation=328 nm and λemission=393 nm. Spectrofluorimeters were interfaced with IBM-compatible microcomputer systems.
The Km for the MCA peptide substrate with the matrix metalloproteinases is quite high and exceeds its solubility under assay conditions. Consequently, the apparent Ki (Ki,app) was determined to describe the strength of inhibition. However, in this case, Ki,app would be essentially equal to Ki since [S]<<Km. For the determination of Ki,app, the concentration of the inhibitor was varied at a constant and low concentration of substrate and the steady-state rates of fluorescence change determined. In most cases absorptive quench due to the presence of ligand was not observed. For slow-binding inhibitors, onset of inhibition curves were collected for at least 45 minutes so that equilibrium was established. Steady-state rates of fluorescence change were obtained by fitting a curve to an equation for a single exponential decay containing a linear phase. The fitted value of the linear phase was taken as the steady-state rate. The steady-state rates were fitted to the Michaelis equation describing competitive inhibition by non-linear methods. Data resulting from tight-binding inhibition was analyzed, and Ki,app determined by fitting the data to the tight-binding equation of Morrison See (Biochem. Biophys. Acta, vol. 185, pp. 269-286 (1969)) by non-linear methods.

gelatinase A (HG72kD) = molecular target: T2, gelatinase A (HG72kD) (Homo sapiens, UniProt P08253); assay: MCA fluorogenic enzyme assay, competitive inhibition analysis (Ki,app), gelatinase A; assay type: biochemical; settings: MCA peptide substrate, 37° C., pH 7.5, read-out: Enzyme Inhibition Constants (K1) HG72kD
T2 sequence (P08253 110-660): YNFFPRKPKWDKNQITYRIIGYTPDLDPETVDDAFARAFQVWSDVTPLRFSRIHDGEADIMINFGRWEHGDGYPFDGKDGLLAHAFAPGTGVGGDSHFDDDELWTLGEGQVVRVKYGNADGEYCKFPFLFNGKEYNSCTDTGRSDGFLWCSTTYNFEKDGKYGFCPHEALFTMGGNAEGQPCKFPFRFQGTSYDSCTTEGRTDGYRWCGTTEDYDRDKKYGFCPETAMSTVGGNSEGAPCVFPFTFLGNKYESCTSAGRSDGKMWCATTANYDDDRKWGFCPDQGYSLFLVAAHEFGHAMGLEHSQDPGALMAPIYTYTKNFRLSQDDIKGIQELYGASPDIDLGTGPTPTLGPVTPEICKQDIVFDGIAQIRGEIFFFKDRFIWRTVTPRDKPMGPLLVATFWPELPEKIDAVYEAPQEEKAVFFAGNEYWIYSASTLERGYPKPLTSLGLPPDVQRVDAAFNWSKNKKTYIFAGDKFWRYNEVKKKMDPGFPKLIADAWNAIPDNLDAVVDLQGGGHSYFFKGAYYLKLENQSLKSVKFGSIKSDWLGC

Coll3 = Coll3 (Homo sapiens, UniProt P45452); assay: MCA fluorogenic enzyme assay, competitive inhibition analysis (Ki,app), Coll3; assay type: biochemical; settings: MCA peptide substrate, 37° C., pH 7.5, read-out: Enzyme Inhibition Constants (K1) Coll3
[1] = system: murine Lewis lung carcinoma (NIH) tumor line; assay: Tumor model: subcutaneous Lewis lung carcinoma, primary tumor growth and lung metastases; assay type: in vivo, female BDF1 mice; settings: 50 mg/kg; for Tumor Growth Delay / % Inhibition-Lung Metastases: i.p., daily, Day 1-Day 21; for Tumor Growth Delay: delay in reaching 1000 mm^3 tumor volume between control and treated animals; for % Inhibition-Lung Metastases: metastases counted 22 days after tumor implantation
Description: Primary subcutaneous tumors were established in female BDF1 mice by trocar inoculation of the murine Lewis lung carcinoma (NIH) tumor line. This tumor line produces spontaneous lung metastases which arise from the primary tumor. Primary tumor growth was monitored by measuring the length and width of the subcutaneous tumor using calipers; lung metastases were counted at the end of the experiment (22 days after tumor implantation) by removing the lungs and counting the lesions using a dissecting microscope. The test compound was administered daily, i.p., beginning 24 hours after tumor implantation (day 1) and continuing through day 21. Primary tumor volumes and number of lung metastases were compared to control animals using an ANOVA followed by a comparison of means using the F statistic. […] All drugs were administered at 50 mg/kg, i.p., daily, Day 1-Day 21.

HFC = molecular target: T3, HFC (Homo sapiens, UniProt P03956); assay: MCA fluorogenic enzyme assay, competitive inhibition analysis (Ki,app), HFC; assay type: biochemical; settings: MCA peptide substrate, 37° C., pH 7.5, read-out: Enzyme Inhibition Constants (K1) HFC
T3 sequence (P03956 100-469): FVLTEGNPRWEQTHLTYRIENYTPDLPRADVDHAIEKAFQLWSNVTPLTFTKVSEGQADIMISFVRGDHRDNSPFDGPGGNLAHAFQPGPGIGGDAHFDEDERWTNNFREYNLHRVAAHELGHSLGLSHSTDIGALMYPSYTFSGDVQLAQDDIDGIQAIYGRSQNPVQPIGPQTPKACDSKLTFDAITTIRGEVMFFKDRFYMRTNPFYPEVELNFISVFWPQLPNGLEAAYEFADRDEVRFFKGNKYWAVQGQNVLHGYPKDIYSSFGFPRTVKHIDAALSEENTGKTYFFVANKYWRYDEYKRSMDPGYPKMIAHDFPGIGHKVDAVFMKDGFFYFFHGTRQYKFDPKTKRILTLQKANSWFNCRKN

Sequence of stromelysin (HSLN) (P08254 100-477): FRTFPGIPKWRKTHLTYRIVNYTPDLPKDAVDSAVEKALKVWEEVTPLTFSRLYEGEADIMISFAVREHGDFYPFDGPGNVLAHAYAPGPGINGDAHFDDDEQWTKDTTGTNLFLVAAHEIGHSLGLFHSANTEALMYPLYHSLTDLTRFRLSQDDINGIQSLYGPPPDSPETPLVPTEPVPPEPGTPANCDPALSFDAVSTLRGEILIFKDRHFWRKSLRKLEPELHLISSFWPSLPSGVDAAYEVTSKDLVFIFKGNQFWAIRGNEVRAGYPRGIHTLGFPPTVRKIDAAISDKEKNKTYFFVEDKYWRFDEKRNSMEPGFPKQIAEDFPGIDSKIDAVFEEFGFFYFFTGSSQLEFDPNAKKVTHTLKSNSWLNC

Molecule	Ki (stromelysin (HSLN)) [nM]	Ki (matrilysin (Matr.)) [nM]	Ki (gelatinase A (HG72kD)) [nM]	Ki (Coll3) [nM]	Tumor Growth Delay [1]	% Inhibition-Lung Metastases [1]	tumor growth delay relative to control (significance, in words) ([1]; p<0.025)	number of lung metastases relative to the control (significance, in words) ([1]; p<0.05)	Ki (HFC) [nM]
CC(C)(C)OC(=O)N1CCN(S(=O)(=O)c2ccc(Oc3ccc(Cl)cc3)cc2)[C@@H](C(=O)NO)C1 [Example 9(a), 2(R)-N-hydroxy-1-(4-(4-chlorophenoxy)benzenesulfonyl)-4-(t-butoxycarbonyl)-piperazine-2-carboxamide]	0.31	142	0.007	0.006	7.2 days (p < 0.025)	77.6% (p < 0.05)	statistically significant	statistically significant	–
O=C(NO)[C@@H]1C[S@+]([O-])CCN1S(=O)(=O)c1ccc(Oc2ccc(Br)cc2)cc1 (racemic) [Example 14(a), 1(R/S),3(R/S)-N-hydroxy-1-oxo-4-(4-(4-bromophenoxy)benzene-sulfonyl)-tetrahydro-2H-1,4-thiazine-3-carboxamide]	0.41	109	0.013	0.017	–	–	–	–	23
O=C(NO)[C@H]1COCCN1S(=O)(=O)c1ccc(Oc2ccc(Cl)cc2)cc1 [8(a), 3(R)-N-hydroxy-4-(4-(4-chlorophenoxy)benzenesulfonyl)-morpholine-3-carboxamide]	0.093	77	0.031	0.021	-0.1 days	7.5%	–	–	8.9
O=C(NO)C1C[S+]([O-])CCN1S(=O)(=O)c1ccc(Oc2ccc(F)cc2)cc1 (racemic) [Example 14(b), 1(R/S),3(R/S)-N-hydroxy-1-oxo-4-(4-(4-fluorophenoxy)benzene-sulfonyl)-tetrahydro-2H-1,4-thiazine-3-carboxamide]	0.79	306	0.034	0.016	–	–	–	–	28
CC(C)(C)OC(=O)N1CCN(S(=O)(=O)c2ccc(Oc3ccc(C#N)cc3)cc2)C(C(=O)NO)C1 (racemic) [Example 9(c), 2(R/S)-N-hydroxy-1-(4-(4-cyanophenoxy)benzenesulfonyl)-4-(t-butoxycarbonyl)-piperazine-2-carboxamide]	14	3570	0.696	1.97	–	–	–	–	580
CC1(C)SCCN(S(=O)(=O)c2ccc(Oc3ccc(Br)cc3)cc2)[C@H]1C(=O)NO [Example 16(a), 3(S)-N-hydroxy-4-(4-(4-bromophenoxy)benzenesulfonyl)-2,2-dimethyl-tetrahydro-2H-1,4-thiazine-3-carboxamide]	0.017	2.8	0.003	0.001	–	–	–	–	0.56
O=C(NO)[C@H]1CNCCN1S(=O)(=O)c1ccc(Oc2ccc(F)cc2)cc1 [Example 10(b), 2(R)-N-hydroxy-1-(4-(4-fluorophenoxy)benzenesulfonyl)-piperazine-2-carboxamide hydrochloride]	0.98	365	0.232	0.257	–	–	–	–	44
O=C(NO)[C@H]1CNCCN1S(=O)(=O)c1ccc(Oc2ccc(Cl)cc2)cc1 [Example 10(a), 2(R)-N-hydroxy-1-(4-(4-chlorophenoxy)benzenesulfonyl)-piperazine-2-carboxamide hydrochloride]	1	171	0.413	0.363	–	–	–	–	34
CS(=O)(=O)N1CCN(S(=O)(=O)c2ccc(Oc3ccc(Cl)cc3)cc2)[C@@H](C(=O)NO)C1 [Example 12(a), 2(R)-N-hydroxy-1-(4-(4-chlorophenoxy)benzenesulfonyl)-4-(methanesulfonyl)-piperazine-2-carboxamide]	0.043	28	0.003	0.002	–	–	–	–	2.5
CC1(C)[C@H](C(=O)NO)N(S(=O)(=O)c2ccc(Oc3ccc(Br)cc3)cc2)CC[S@@+]1[O-] [Example 17(a), 1(R),3(S)-N-hydroxy-4-(4-(4-bromophenoxy)benzenesulfonyl)-2,2-dimethyl-1-oxo-tetrahydro-2H-1,4-thiazine-3-carboxamide]	0.056	11	0.009	0.01	–	–	–	–	3.6
3(S)-4-(4-(4-(furan-3-yl)phenoxy)benzenesulfonyl-N-hydroxy-tetrahydro-2H-1,4-thiazine-3-carboxamide [Example 20]	0.06	0.7	0.0017	0.002	–	–	–	–	1.4
O=C(NO)C1CSCCN1S(=O)(=O)c1ccc(Oc2ccc(F)cc2)cc1 (racemic) [Example 13(c), 3(R/S)-N-hydroxy-4-(4-(4-fluorophenoxy)benzenesulfonyl)-tetrahydro-2H-1,4-thiazine-3-carboxamide]	0.53	313	0.028	0.035	–	–	–	–	40
CN1CCN(S(=O)(=O)c2ccc(Oc3ccc(Cl)cc3)cc2)[C@@H](C(=O)NO)C1 [Example 11(a), 2(R)-N-hydroxy-1-(4-(4-chlorophenoxy)benzenesulfonyl)-4-methyl-piperazine-2-carboxamide hydrochloride]	0.67	993	0.025	0.02	–	–	–	–	130
